Results on two molecules are retold here after US4956504A, “Novel spergualin-related compounds and process for producing the same” (Zaidan Hojin Biseibutsu Kagaku Kenkyu Kai, priority 1986, dated 1990).

In data set [1] the test system is mice. The data set can be described thus: Acute toxicity: administration amount causing acute death to mice. It counts as in vivo. The following applies: mouse, in vivo, ip. The procedure: A compound of the present invention was dissolved in a physiological saline solution in various concentrations. Each of the resulting solutions was intraperitoneally administered to one of CDF1 -SLC female mice (one group: two to three mice) in an amount of 0.1 ml per 10 g of body weight. The highest concentration of present compound in solution was 400 mg/10 ml/kg, and starting from this solution of highest concentration, solutions of lower concentrations were prepared each time at a common ratio of 2. The administration amount of present compound with the lowest concentration solution with which at least one mouse died was taken as an administration amount of acute toxicity.
(§1) In Tables and 5, a control compound is included. This compound is such that in the general formula [I], X is [drawing 59] R is --CH2 OH and both of R1 and R2 are --H.

For data set [2], the system named is antibody formation (anti-SRBC plaque-forming cells). The data set can be described thus: Inhibitory activity against antibody formation (anti-SRBC plaque-forming cells in spleen). It counts as in vivo, mouse (CDF1-SLC female). The note with it: once a day for three consecutive days, minus shows an increase of antibody formation. On the procedure: (b) Inhibitory activity against antibody formation
Test groups and a control group of CDF1 -SLC female mice (each group: five mice) were intravenously sensitized with 1×10^8 /0.2 ml of sheep red blood cells (SRBC). A compound of the present invention was dissolved in a physiological saline solution in various concentrations. Each of the resulting solutions was administered to one of the test groups once a day for three consecutive days from the next day of the sensitization, in an amount of 0.1 ml/10 g (body weight)/day. The physiological saline solution was administered to the control group.
In the fourth day from the sensitization, all the mice were killed and the number of anti-SRBC plaque-forming cells (PFC) in the spleen cells of each mouse was measured. From this number, the PFC number per 10^6 of spleen cells was calculated. The effect of the present compound was expressed as an inhibition percentage (%) of PFC number of test group as compared with control group. [formula]
as §1

Data set [3] deals with mouse leukemia L1210. The data set can be described thus: Life prolongation effect to mouse leukemia L1210. It counts as in vivo, mouse (CDF1-SLC female). The note with it: once a day for nine consecutive days, 125 or more is effective, read-out: T/C × 100 (life prolongation percentage); for response vs control in vivo at 0.39 mg/kg: 0.39 mg/kg/day; for response vs control in vivo at 0.78 mg/kg: 0.78 mg/kg/day; for response vs control in vivo at 1.56 mg/kg: 1.56 mg/kg/day; for response vs control in vivo at 3.13 mg/kg: 3.13 mg/kg/day; for response vs control in vivo at 6.25 mg/kg: 6.25 mg/kg/day; for response vs control in vivo at 12.5 mg/kg: 12.50 mg/kg/day; for response vs control in vivo at 25 mg/kg: 25.00 mg/kg/day; for response vs control in vivo at 50 mg/kg: 50.00 mg/kg/day. On the procedure:
3. Life prolongation effect of present compound to mouse leukemia cells L1210 and its toxicity
1×10^5 /0.2 ml/mouse of mouse leukemia cells L1210 were intraperitoneally transplanted to test groups and a control group of CDF1 -SLC female mice (each group: four mice). A compound of the present invention was dissolved in a physiological saline solution in various concentrations and each of the resulting solutions was administered to one of the test groups once a day for nine consecutive days from the next day of the transplantation, in an amount of 0.1 ml/10 g (body weight)/day. The physiological saline solution was administered to the control group.
All the mice of the test groups and the control group were observed from the next day of the L1210 transplantation to examine their days of survival, and the average days of survival (T) of each test group and the average days of survival (C) of the control group were calculated. The life prolongation percentage of the present compound was expressed as (T/C)×100.
It is believed that a (T/C)×100 of 125 or more is effective.
as §1

Where [4] appears, read: Administration amount 1.56 mg/kg.
[5] abbreviates: Administration amount 6.25 mg/kg.

Counter-ions that a name gives are not always drawn.

Consider `N=C(N)Nc1ccc(CCCC(=O)N[C@@H](CO)C(=O)NCCCCNCCCNC(=O)[C@H](N)c2ccccc2)cc1` [Compound No. 4, trihydrochloride], for which the “Administration amount causing acute death to mice” value in data set [1] is on record as 100 mg/kg. The “Inhibitory percentage (antibody formation, PFC number vs control group)” value (shortened to “Inhibitory percentage”) in data set [2] (setting [4]) was determined as 68%. Further, the “Inhibitory percentage” value in data set [2] (setting [5]) is reported as 95%. In data set [3], the response vs control in vivo at 0.39 mg/kg was 125%, the response vs control in vivo at 0.78 mg/kg turned out to be 149%, the response vs control in vivo at 1.56 mg/kg turned out to be 195% and the response vs control in vivo at 3.13 mg/kg was found to be 228%. Also, in data set [3], the response vs control in vivo at 6.25 mg/kg is 237%, the response vs control in vivo at 12.5 mg/kg came out at 243%, the response vs control in vivo at 25 mg/kg came out at 247% and the response vs control in vivo at 50 mg/kg stood at 197%.
For `CC(C)C[C@H](NC(=O)[C@@H](N)CC(C)C)C(=O)NCCCNCCCCNC(=O)[C@H](CO)NC(=O)CCCc1ccc(NC(=N)N)cc1` [Compound No. 13, 10-{N-[4-(4-GP)butanoyl]-L-Ser}-1-L-Leu-L-Leu-1,5,10-TAD trihydrochloride], the “Administration amount causing acute death to mice” value in data set [1] was found to be 100 mg/kg. In data set [2] (setting [4]), the “Inhibitory percentage” value was found to be 53%. Further, the “Inhibitory percentage” value in data set [2] (setting [5]) is 88%. Moreover, in data set [3], the response vs control in vivo at 0.39 mg/kg stood at 132%, the response vs control in vivo at 0.78 mg/kg came out at 149%, the response vs control in vivo at 1.56 mg/kg is 201% and the response vs control in vivo at 3.13 mg/kg came to 283%. For the same molecule, in data set [3], the response vs control in vivo at 6.25 mg/kg amounted to 247%, the response vs control in vivo at 12.5 mg/kg amounted to 257%, the response vs control in vivo at 25 mg/kg came out at 274% and the response vs control in vivo at 50 mg/kg was 303%.
